Measured values taken from patent US10695562B2, “Interventional drug delivery system and associated methods” (The University of North Carolina at Chapel Hill, priority 2009, dated 2020).

Columns and labels:
[1] = Gemcitabine transport in orthotopic xenograft tumors, transport testing system, HPLC; assay type: in vitro ADME; conditions: constant current 20 mA, 20 minutes, tumors 1.25 to 1.5 cm
Procedure: To assess and optimize the electrical transport parameters in tissue, a transport testing system was built (see FIG. 32A). The transport of gemcitabine, the current standard-of-care therapy for pancreatic cancer, was evaluated in orthotopic xenograft tumors using this transport testing system (see FIG. 32B). The tumors chosen for the studies were 1.25 to 1.5 cm in diameter because of compatibility with the size of the transport cell. The gemcitabine was used according to the current clinical formulation (Gemzar® to Eli Lilly and Company), at a concentration relevant to that administered in the clinic. For three tumors, a constant current of 20 mA was applied for 20 minutes, and the amount of gemcitabine was evaluated using a high-performance liquid chromatography (HPLC) analysis method. For three additional tumors, no current was applied, which allowed for passive diffusion of the gemcitabine into the tumor, and the amount of gemcitabine was evaluated using the same HPLC analysis method.

[2] = Plasma concentrations of gemcitabine, implantable device on canine pancreas, UV-HPLC; assay type: in vivo; design: key to Gem Concentration (plasma): *: Below limit of detection
Procedure: The reservoir based system similar to that shown in FIGS. 33A-D was surgically implanted onto the pancreas of a canine. All animal models were anesthetized and attached to a respirator for the entirety of the study. The implantable device approach was assessed via a laparotomy. The pancreas was assessed for ease of access.
There were three arms for the large animal experiment: 1. Device with current; 2. Device without current; and 3. IV Infusion (see Table 2). The device was sutured onto the right lobe of the canine pancreas. Gemcitabine formulated at clinically relevant concentrations was pumped into and out of the device at ˜1.5 mL/min during the application of 10 mA of current applied for 60 minutes. Control experiments were run without current. After administration of therapy, the pancreas was excised and snap frozen for analysis. The gemcitabine was measured from the section tissue using UV-HPLC from established protocols in the literature (see Olive, K P, et al. Science 324 (2009) 1457-1461 and Kirstein M N, et al., J Chromatogr B Analyt Technol Biomed Life Sci. 835 (2006) 136-142). Shown in FIG. 34 are the results obtained from the three experimental arms analyzing the mass of gemcitabine from the entire pancreas.
In FIG. 35, the transport distance of the gemcitabine is shown for the with and without current arms. […] Plasma concentrations of gemcitabine were detected at 15-minute increments prior to and during the large animal study. The tissue was sectioned using a cryostat microtome and gemcitabine was extracted using an established extraction method (see Olive et al.). The gemcitabine was detected and quantified using UV-HPLC (see Olive et al. and Kirstein et al.).

increase in the amount of gemcitabine within tumor compared to the control (no current applied) [1]: eight-fold increase
Gem Concentration (plasma) ([2]; Device - Current Applied (10 mA), sample 0 min): *
Gem Concentration (plasma) ([2]; Device - Current Applied (10 mA), sample 15 min): *
Gem Concentration (plasma) ([2]; Device - Current Applied (10 mA), sample 30 min): *
Gem Concentration (plasma) ([2]; Device - Current Applied (10 mA), sample 45 min): *
Gem Concentration (plasma) ([2]; Device - Current Applied (10 mA), sample 60 min): *
Gem Concentration (plasma) ([2]; Device - Current Applied (10 mA), sample −15 min): *
Gem Concentration (plasma) ([2]; Device - No Current, sample 0 min): *
Gem Concentration (plasma) ([2]; Device - No Current, sample 15 min): *
Gem Concentration (plasma) ([2]; Device - No Current, sample 30 min): *
Gem Concentration (plasma) ([2]; Device - No Current, sample 45 min): *
Gem Concentration (plasma) ([2]; Device - No Current, sample 60 min): *
Gem Concentration (plasma) ([2]; Device - No Current, sample −15 min): *
gemcitabine levels detected in the plasma of the dogs ([2]; with and without current arms, device on pancreas): below the detectable limit
Structure (SMILES): Nc1ccn([C@@H]2O[C@H](CO)[C@@H](O)C2(F)F)c(=O)n1 [Gemcitabine, gemcitabine]
